Results: patent US20060063803A1, “4-Amino substituted-2-substituted-1,2,3,4-tetrahydroquinoline compounds” (Pfizer Inc, priority 2004, published 2006)

Key:
[1] = In vitro microcentrifuge dissolution test; type: physicochemical; conditions: PBS pH 6.5, 290 mOsm/kg, 7.3 mM sodium taurocholic acid, 1.4 mM 1-palmitoyl-2-oleyl-sn-glycero-3-phosphocholine, 37° C.; 200 μgA/mL if all dissolved
Procedure: An in vitro dissolution test was used to determine the dissolution performance of the solid amorphous dispersion of Example 89. For this test, a sufficient amount of material was added to a microcentrifuge test tube so that the concentration of Compound A would have been 200 μgA/mL, if all of the compound had dissolved. The test was run in duplicate. The tubes were placed in a 37° C. temperature-controlled chamber, and 1.8 mL PBS at pH 6.5 and 290 mOsm/kg, containing 7.3 mM sodium taurocholic acid and 1.4 mM of 1-palmitoyl-2-oleyl-sn-glycero-3-phosphocholine, was added to each respective tube. The samples were quickly mixed using a vortex mixer for about 60 seconds. The samples were centrifuged at 13,000 G at 37° C. for 1 minute. The resulting supernatant solution was then sampled and diluted 1:5 (by volume) with methanol and analyzed by high-performance liquid chromatography (HPLC). HPLC analysis was performed using a Zorbax RX-C18 column. The mobile phase consisted of 30/70 0.15% trifluoroacetic acid/acetonitrile, with a flow rate of 1.0 mL/min. UV absorbance was measured at 254 nm. The contents of each tube were mixed on the vortex mixer and allowed to stand undisturbed at 37° C. until the next sample was taken. Samples were collected at 4, 10, 20, 40, 90, and 1200 minutes. […]

[2] = In vivo tests - dogs, oral suspension, serum levels by LC/MS/MS; conditions: dog, 3 male beagle dogs, fasted, oral gavage of OPC suspension, 3 mgA/kg
Procedure: Samples were dosed orally as suspensions to 3 male beagle dogs in the fasted state. Oral powders for constitution (OPC) were prepared by adding 150 mg of crystalline Compound A to 50 mL water containing 0.5 wt % Methylcellulose A, or 600 mg of the dispersion of Example 1 to 50 mL water containing 0.5 wt % Methylcellulose A and 0.1 wt % Tween 80. Dogs were fasted overnight, and allowed ad libidum access to water. On the morning of the study, approximately 10 mL of OPC solution (3 mgA/kg) was administered via oral gavage with 10 mL normal saline flush.
Whole-blood samples (3-mL red-top Vacutainer tubes without serum separators) were taken from the jugular vein before dosing and at 0.25, 0.5, 1, 2, 4, 6, 8, and 24 hours after dosing. Serum was harvested into cryovials after centrifugation at 3000 rpm for 10 minutes. The samples were frozen and then kept at −20° C. until they were analyzed by liquid chromatography with tandem mass spectrometry (LC/MS/MS).

AUC90 (area under the concentration-versus-time curve during the initial ninety minutes) [1]: 800 min * μgA/mL
MDC90 (maximum dissolved concentration of Compound A during the initial ninety minutes) [1]: 13 μgA/mL
AUC(0-inf) [2]: 2690 ng·h/mL
Cmax [2]: 186 ng/mL
Compound: CC[C@@H]1C[C@H](N(Cc2cc(C(F)(F)F)cc(C(F)(F)F)c2)c2nnn(C)n2)c2cc(C(F)(F)F)ccc2N1C(=O)[C@H]1CC[C@H](CC(N)=O)CC1 [Crystalline Compound A, Trans-(2R,4S)-2-(4-{4-[(3,5-Bis-trifluoromethyl-benzyl)-(2-methyl-2H-tetrazol-5-yl)-amino]-2-ethyl-6-trifluoromethyl-3,4-dihydro-2H-quinoline-1-carbonyl}-cyclohexyl)-acetamide]
